# Results published in PubChem BioAssay AID1963435 (Molecular Pharmacology Branch, DTP, NCI, 2024).
# Tested on: PANC-1 complex spheroid growth, percent test/control
# Assay: Anticancer human tumor PANC-1 cell line growth inhibition [Asc];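 note: spheroids exposed to agents for 7 days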;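 for viability, T/C: percent viability relative to DMSO vehicle wells taken as 100%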
# Conditions: for IC50: curve of first compound; for viability, T/C: stronger effect = lower value
# In short: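 Spheroid model: tumor line + HUVEC + hMSC. Single agents and combinations; top conc. at/near clinical Cmax (10 microM if undetermined), half-log dilutions. DMSO stocks at 800-fold test concentration.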
# [1] = second compound 0.0316 µM, first compound 0.0316 µM
# [2] = second compound 0.0316 µM, first compound 0.1 µM
# [3] = second compound 0.0316 µM, first compound 0.316 µM
# [4] = second compound 0.0316 µM, first compound 1 µM
# [5] = second compound 0.0316 µM, first compound 3.16 µM
# [6] = second compound 0.0316 µM, first compound 10 µM
# [7] = second compound 0.1 µM, first compound 0.0316 µM
# [8] = second compound 0.1 µM, first compound 0.1 µM
# [9] = second compound 0.1 µM, first compound 0.316 µM
# [10] = second compound 0.1 µM, first compound 1 µM
# [11] = second compound 0.1 µM, first compound 3.16 µM
# [12] = second compound 0.1 µM, first compound 10 µM
# [13] = second compound 0.316 µM, first compound 0.0316 µM
# [14] = second compound 0.316 µM, first compound 0.1 µM
# [15] = second compound 0.316 µM, first compound 0.316 µM
# [16] = second compound 0.316 µM, first compound 1 µM
# [17] = second compound 0.316 µM, first compound 3.16 µM
# [18] = second compound 0.316 µM, first compound 10 µM
# [19] = second compound 1 µM, first compound 0.0316 µM
# [20] = second compound 1 µM, first compound 0.1 µM
# [21] = second compound 1 µM, first compound 0.316 µM
# [22] = second compound 1 µM, first compound 1 µM
# [23] = second compound 1 µM, first compound 3.16 µM
# [24] = second compound 1 µM, first compound 10 µM
# [25] = second compound 3.16 µM, first compound 0.0316 µM
# [26] = second compound 3.16 µM, first compound 0.1 µM
# [27] = second compound 3.16 µM, first compound 0.316 µM
# [28] = second compound 3.16 µM, first compound 1 µM
# [29] = second compound 3.16 µM, first compound 3.16 µM
# [30] = second compound 3.16 µM, first compound 10 µM
# [31] = second compound 10 µM, first compound 0.0316 µM
# [32] = second compound 10 µM, first compound 0.1 µM
# [33] = second compound 10 µM, first compound 0.316 µM
# [34] = second compound 10 µM, first compound 1 µM
# [35] = second compound 10 µM, first compound 3.16 µM
# [36] = second compound 10 µM, first compound 10 µM
smiles,measurement,setting,value
C=C(F)C(=O)N1CCN(c2nc(OCC3CCCN3C)nc3c2CCN(c2cccc4cccc(Cl)c24)C3)CC1CC#N (stereo unspecified) + Cc1c(S(C)(=O)=O)c(-c2cc(F)cc(N3CCN(c4ccc(NS(=O)(=O)c5ccc(NC(CCN6CCC(C(=O)OCCCP(=O)(O)O)CC6)CSc6ccccc6)c(S(=O)(=O)C(F)(F)F)c5)cc4)CC3)c2)c(-c2ccc(Cl)cc2)n1C(C)C,IC50,second compound 0.0316 µM,5.83 µM
same,IC50,second compound 0.1 µM,5.83 µM
same,IC50,second compound 0.316 µM,5.43 µM
same,IC50,second compound 1 µM,5.24 µM
same,IC50,second compound 3.16 µM,5 µM
same,IC50,second compound 10 µM,5.88 µM
same,"viability, T/C",[1],94.6%
same,"viability, T/C",[2],95.8%
same,"viability, T/C",[3],106%
same,"viability, T/C",[4],100%
same,"viability, T/C",[5],92.4%
same,"viability, T/C",[6],12.5%
same,"viability, T/C",[7],97.4%
same,"viability, T/C",[8],87.6%
same,"viability, T/C",[9],113%
same,"viability, T/C",[10],103%
same,"viability, T/C",[11],98%
same,"viability, T/C",[12],7.53%
same,"viability, T/C",[13],101%
same,"viability, T/C",[14],101%
same,"viability, T/C",[15],109%
same,"viability, T/C",[16],103%
same,"viability, T/C",[17],91.3%
same,"viability, T/C",[18],3.26%
same,"viability, T/C",[19],97.8%
same,"viability, T/C",[20],98.2%
same,"viability, T/C",[21],117%
same,"viability, T/C",[22],107%
same,"viability, T/C",[23],88.1%
same,"viability, T/C",[24],1.2%
same,"viability, T/C",[25],104%
same,"viability, T/C",[26],113%
same,"viability, T/C",[27],114%
same,"viability, T/C",[28],114%
same,"viability, T/C",[29],80%
same,"viability, T/C",[30],4.62%
same,"viability, T/C",[31],181%
same,"viability, T/C",[32],180%
same,"viability, T/C",[33],189%
same,"viability, T/C",[34],194%
same,"viability, T/C",[35],108%
same,"viability, T/C",[36],0.69%
C=CC(=O)N1CCN(c2nc(=O)n(-c3c(C)ccnc3C(C)C)c3nc(-c4c(O)cccc4F)c(F)cc23)C(C)C1 (stereo unspecified) + Cc1c(S(C)(=O)=O)c(-c2cc(F)cc(N3CCN(c4ccc(NS(=O)(=O)c5ccc(NC(CCN6CCC(C(=O)OCCCP(=O)(O)O)CC6)CSc6ccccc6)c(S(=O)(=O)C(F)(F)F)c5)cc4)CC3)c2)c(-c2ccc(Cl)cc2)n1C(C)C,IC50,second compound 0.0316 µM,> 10 µM
same,IC50,second compound 0.1 µM,> 10 µM
same,IC50,second compound 0.316 µM,> 10 µM
same,IC50,second compound 1 µM,> 10 µM
same,IC50,second compound 3.16 µM,> 10 µM
same,IC50,second compound 10 µM,> 10 µM
same,"viability, T/C",[1],98.5%
same,"viability, T/C",[2],95.1%
same,"viability, T/C",[3],93.7%
same,"viability, T/C",[4],89.7%
same,"viability, T/C",[5],98.5%
same,"viability, T/C",[6],88.2%
same,"viability, T/C",[7],99.3%
same,"viability, T/C",[8],90.3%
same,"viability, T/C",[9],105%
same,"viability, T/C",[10],106%
same,"viability, T/C",[11],88.8%
same,"viability, T/C",[12],94.5%
same,"viability, T/C",[13],107%
same,"viability, T/C",[14],97%
same,"viability, T/C",[15],105%
same,"viability, T/C",[16],105%
same,"viability, T/C",[17],98.4%
same,"viability, T/C",[18],98%
same,"viability, T/C",[19],96.2%
same,"viability, T/C",[20],104%
same,"viability, T/C",[21],107%
same,"viability, T/C",[22],114%
same,"viability, T/C",[23],95.6%
same,"viability, T/C",[24],92.6%
same,"viability, T/C",[25],107%
same,"viability, T/C",[26],109%
same,"viability, T/C",[27],104%
same,"viability, T/C",[28],102%
same,"viability, T/C",[29],109%
same,"viability, T/C",[30],92.4%
same,"viability, T/C",[31],166%
same,"viability, T/C",[32],166%
same,"viability, T/C",[33],162%
same,"viability, T/C",[34],177%
same,"viability, T/C",[35],175%
same,"viability, T/C",[36],135%
CCN1C(C(=O)NC23CCC(C(=O)O)(CC2)CC3)C(c2cccc(Cl)c2F)C2(C(=O)Nc3cc(Cl)ccc32)C12CCCCC2 (stereo unspecified) + Cc1c(S(C)(=O)=O)c(-c2cc(F)cc(N3CCN(c4ccc(NS(=O)(=O)c5ccc(NC(CCN6CCC(C(=O)OCCCP(=O)(O)O)CC6)CSc6ccccc6)c(S(=O)(=O)C(F)(F)F)c5)cc4)CC3)c2)c(-c2ccc(Cl)cc2)n1C(C)C,IC50,second compound 0.0316 µM,> 3 µM
same,IC50,second compound 0.1 µM,> 3 µM
same,IC50,second compound 0.316 µM,> 3 µM
same,IC50,second compound 1 µM,> 3 µM
same,IC50,second compound 3.16 µM,> 3 µM
same,IC50,second compound 10 µM,> 3 µM
same,"viability, T/C","second compound 0.0316 µM, first compound 0.00949 µM",99.1%
same,"viability, T/C","second compound 0.0316 µM, first compound 0.03 µM",103%
same,"viability, T/C","second compound 0.0316 µM, first compound 0.0949 µM",93.7%
same,"viability, T/C","second compound 0.0316 µM, first compound 0.3 µM",110%
same,"viability, T/C","second compound 0.0316 µM, first compound 0.949 µM",109%
same,"viability, T/C","second compound 0.0316 µM, first compound 3 µM",114%
same,"viability, T/C","second compound 0.1 µM, first compound 0.00949 µM",101%
same,"viability, T/C","second compound 0.1 µM, first compound 0.03 µM",108%
same,"viability, T/C","second compound 0.1 µM, first compound 0.0949 µM",106%
same,"viability, T/C","second compound 0.1 µM, first compound 0.3 µM",96.8%
same,"viability, T/C","second compound 0.1 µM, first compound 0.949 µM",124%
same,"viability, T/C","second compound 0.1 µM, first compound 3 µM",123%
same,"viability, T/C","second compound 0.316 µM, first compound 0.00949 µM",99.8%
same,"viability, T/C","second compound 0.316 µM, first compound 0.03 µM",96.3%
same,"viability, T/C","second compound 0.316 µM, first compound 0.0949 µM",105%
same,"viability, T/C","second compound 0.316 µM, first compound 0.3 µM",103%
same,"viability, T/C","second compound 0.316 µM, first compound 0.949 µM",117%
same,"viability, T/C","second compound 0.316 µM, first compound 3 µM",109%
same,"viability, T/C","second compound 1 µM, first compound 0.00949 µM",124%
same,"viability, T/C","second compound 1 µM, first compound 0.03 µM",107%
same,"viability, T/C","second compound 1 µM, first compound 0.0949 µM",106%
same,"viability, T/C","second compound 1 µM, first compound 0.3 µM",107%
same,"viability, T/C","second compound 1 µM, first compound 0.949 µM",118%
same,"viability, T/C","second compound 1 µM, first compound 3 µM",115%
same,"viability, T/C","second compound 3.16 µM, first compound 0.00949 µM",115%
same,"viability, T/C","second compound 3.16 µM, first compound 0.03 µM",102%
same,"viability, T/C","second compound 3.16 µM, first compound 0.0949 µM",111%
same,"viability, T/C","second compound 3.16 µM, first compound 0.3 µM",116%
same,"viability, T/C","second compound 3.16 µM, first compound 0.949 µM",118%
same,"viability, T/C","second compound 3.16 µM, first compound 3 µM",123%
same,"viability, T/C","second compound 10 µM, first compound 0.00949 µM",179%
same,"viability, T/C","second compound 10 µM, first compound 0.03 µM",189%
same,"viability, T/C","second compound 10 µM, first compound 0.0949 µM",184%
same,"viability, T/C","second compound 10 µM, first compound 0.3 µM",186%
same,"viability, T/C","second compound 10 µM, first compound 0.949 µM",172%
same,"viability, T/C","second compound 10 µM, first compound 3 µM",155%
